From publication PMC4640066 (Nature Communications, 2015)

Assays:
[1] = system: HeLa cells; test: Bipolar spindle establishment after STLC washout; format: cell-based, human; conditions: 30 μM, 2 h after STLC washout
Protocol: To analyse bipolar spindle establishment from monopolar spindles, HeLa cells were arrested at prometaphase with 10 μM of STLC for 15 h. STLC was removed by washing cells with the medium three times. After treatment with 1% DMSO or 30 μM of gatastatin for 2 h, cells were immediately fixed with cold MeOH (−20 °C).
Immunostaining was performed as described above using anti-α-tubulin (1:250 dilution, Santa Cruz, Cat# sc-32293) and anti-pericentrin (1:250 dilution, Abcam, Cat# ab4448) antibodies. Spindle structure was observed under a Leica LAS AF 6000 fluorescence microscope (Leica Microsystems). The measurement of spindle length was performed as described above.

[2] = system: γ-tubulin-dependent, centrosome-induced aster formation; test: Centrosome (sperm nuclei)-induced aster formation in Xenopus egg extracts; format: biochemical; conditions: Xenopus extracts with sperm nuclei, 30 min at 20 °C
Protocol: Cytostatic factor (CSF)-arrested M phase Xenopus egg extracts (CSF extracts) were prepared. Briefly, unfertilized eggs were crushed by 10,700g centrifugation for 20 min. M phase extracts were mixed with 0.5 μM Cy3-labelled α/β-tubulin and various concentrations of compounds. After incubation for 30 min on ice, 15 μM RanQ69L, 200 sperm nuclei per μl or 5% DMSO were added and incubated for 30 min on ice. […]
(a) The efficiency of γ-tubulin depletion in Xenopus extracts was confirmed by immunoblotting. […] The depletion efficiency was calculated with ImageJ and was approx. 80%. […]
Scale bars, 5 μm. […] Aster formation was analyzed by fluorescence microscopy. […] Asters (Fig. 1e and Supplementary Figure 4c) in 10 randomly selected fields were counted per slide with a 10× objective; each sample had four slides. […]
Error bars represent S.D. Two-tailed, paired Student’s t-test was used to obtain P values. […] (e) Quantification of the radius of RanQ69L-induced asters from Fig. 1e and Supplementary Figure 4c. To gauge the impact upon the radius of the asters, n = 20 asters were quantified per sample per experiment. […]

With COc1cc2c(=O)c(-c3cc(OC)c4c(c3OC)OCO4)coc2cc1OCc1ccccc1 [Gatastatin, O^7-demethylbenzyl AG1] the “Cells unable to assemble a metaphase-like spindle on STLC washout” value [1] was 87% and the “Effect on centrosome-induced aster formation” value [2] was “nearly completely inhibited”.
